16 compounds from US7863438B2 (Yamasa Corporation, priority 2005, dated 2011) can be followed below.

Molecules are shown by their SMILES. Structures can show the parent of a compound that is named as a salt. Where two headings read alike, the source gives them in different places.

Data set [1] in a line: Ambient-temperature stability of PAPS lithium salt in aqueous solution or in the form of powder (HPLC determination of PAPS). Here is the method:
ODS-[…] column (product of YMC) • Eluent: 50 mM Aqueous potassium dihydrogenphosphate solution • Flow rate: 0.6 mL/minute • Detection: Absorbance (A) at 270 nm • Temperature: 20° C. The present invention will next be specifically described in detail with reference to Referential Example and Example. However, it will be understood that the present invention is not limited to the Example. Quantitative determination of PAPS was performed under the aforementioned HPLC conditions. Ambient-temperature stability of a PAPS lithium salt (product of Calbiochem) was evaluated in an aqueous solution or in the form of powder as follows. […] As used herein, “percent undecomposed” or “percentage of undecomposed PAPS” is the ratio of the remaining amount of PAPS to the initial amount thereof.

Setting [2] is: powder 10 mg, desiccator (relative humidity: 10%), ambient temperature (23±2° C.), seven days.

Regarding `Nc1ncnc2c1ncn2[C@@H]1O[C@H](COP(=O)(O)OS(=O)(=O)O)[C@@H](OP(=O)(O)O)[C@H]1O` [L-Histidine salt, 3′-phosphoadenosine 5′-phosphosulfate], the “Undecomposed PAPS (%)” value under setting [2] was found to be 98%.
Same read-out and setting: next, `Nc1ncnc2c1ncn2[C@@H]1O[C@H](COP(=O)(O)OS(=O)(=O)O)[C@@H](OP(=O)(O)O)[C@H]1O` [Putrescine salt, 3′-phosphoadenosine 5′-phosphosulfate]: 80%.
For `Nc1ncnc2c1ncn2[C@@H]1O[C@H](COP(=O)(O)OS(=O)(=O)O)[C@@H](OP(=O)(O)O)[C@H]1O` [L-Arginine salt, 3′-phosphoadenosine 5′-phosphosulfate], the “Undecomposed PAPS (%)” value was 57%.
In the case of `Nc1ncnc2c1ncn2[C@@H]1O[C@H](COP(=O)(O)OS(=O)(=O)O)[C@@H](OP(=O)(O)O)[C@H]1O` [Lithium salt, 3′-phosphoadenosine 5′-phosphosulfate], the “Undecomposed of PAPS (%)” value is given as above 99% in data set [1] (aqueous solution 10 mg/mL, standing still at 4° C. for seven days); 96% in data set [1] (aqueous solution 10 mg/mL, standing still at 23° C. for seven days); 89% in data set [1] (powder (10 mg), standing still at 4° C. for seven days); 65% in data set [1] (powder (10 mg), standing still at 23° C. for seven days). The “stability in aqueous solution (in words)” value in data set [1] (aqueous solution, seven days) was “relatively stable”. For the same compound, the “decomposed (%)” value in data set [1] (powder, ambient temperature, seven days) was 35%. For the same compound, the “stability in the form of powder (in words)” value in data set [1] (powder, seven days) is “very unstable”. The “Undecomposed PAPS (%)” value under setting [2] was 65%.
Take `Nc1ncnc2c1ncn2[C@@H]1O[C@H](COP(=O)(O)OS(=O)(=O)O)[C@@H](OP(=O)(O)O)[C@H]1O` [Ethylamine salt, 3′-phosphoadenosine 5′-phosphosulfate]: the “Undecomposed PAPS (%)” value is on record as 48%.
As to `Nc1ncnc2c1ncn2[C@@H]1O[C@H](COP(=O)(O)OS(=O)(=O)O)[C@@H](OP(=O)(O)O)[C@H]1O` [Diethylamine salt, 3′-phosphoadenosine 5′-phosphosulfate], the “Undecomposed PAPS (%)” value under setting [2] came out at 96%.
Take `Nc1ncnc2c1ncn2[C@@H]1O[C@H](COP(=O)(O)OS(=O)(=O)O)[C@@H](OP(=O)(O)O)[C@H]1O` [Sodium salt, 3′-phosphoadenosine 5′-phosphosulfate]: the “Undecomposed PAPS (%)” value under setting [2] is on record as 64%.
Take `Nc1ncnc2c1ncn2[C@@H]1O[C@H](COP(=O)(O)OS(=O)(=O)O)[C@@H](OP(=O)(O)O)[C@H]1O` [Trimethylamine salt, 3′-phosphoadenosine 5′-phosphosulfate]: the “Undecomposed PAPS (%)” value was 89%.
On to `Nc1ncnc2c1ncn2[C@@H]1O[C@H](COP(=O)(O)OS(=O)(=O)O)[C@@H](OP(=O)(O)O)[C@H]1O` [Piperidine salt, 3′-phosphoadenosine 5′-phosphosulfate], for which the “Undecomposed PAPS (%)” value was 92%.
With `Nc1ncnc2c1ncn2[C@@H]1O[C@H](COP(=O)(O)OS(=O)(=O)O)[C@@H](OP(=O)(O)O)[C@H]1O` [Ammonium salt, 3′-phosphoadenosine 5′-phosphosulfate], under setting [2], the “Undecomposed PAPS (%)” value was 4.1%.
Same read-out and setting: next, `Nc1ncnc2c1ncn2[C@@H]1O[C@H](COP(=O)(O)OS(=O)(=O)O)[C@@H](OP(=O)(O)O)[C@H]1O` [Ethanolamine salt, 3′-phosphoadenosine 5′-phosphosulfate]: 13%; `Nc1ncnc2c1ncn2[C@@H]1O[C@H](COP(=O)(O)OS(=O)(=O)O)[C@@H](OP(=O)(O)O)[C@H]1O` [Polyethyleneimine salt, 3′-phosphoadenosine 5′-phosphosulfate]: 94%.
Still for that read-out and setting: with `Nc1ncnc2c1ncn2[C@@H]1O[C@H](COP(=O)(O)OS(=O)(=O)O)[C@@H](OP(=O)(O)O)[C@H]1O` [Triethylamine salt, 3′-phosphoadenosine 5′-phosphosulfate] the figure was 100%.
On the same count and under the same terms, next, `Nc1ncnc2c1ncn2[C@@H]1O[C@H](COP(=O)(O)OS(=O)(=O)O)[C@@H](OP(=O)(O)O)[C@H]1O` [Potassium salt, 3′-phosphoadenosine 5′-phosphosulfate]: 22%.
Take `Nc1ncnc2c1ncn2[C@@H]1O[C@H](COP(=O)(O)OS(=O)(=O)O)[C@@H](OP(=O)(O)O)[C@H]1O` [L-Lysine salt, 3′-phosphoadenosine 5′-phosphosulfate]: the “Undecomposed PAPS (%)” value came out at 27%.
In the case of `Nc1ncnc2c1ncn2[C@@H]1O[C@H](COP(=O)(O)OS(=O)(=O)O)[C@@H](OP(=O)(O)O)[C@H]1O` [Imidazole salt, 3′-phosphoadenosine 5′-phosphosulfate], the “Undecomposed PAPS (%)” value under setting [2] was 2.9%.
